Where a name gives a salt, the structure may show the parent alone.
| melting point | Structure (SMILES) |
| --- | --- |
| 118 °C | O=C(Nc1cccc2c1C(=O)N(CCC(=O)N1CCN(c3ccncc3)CC1)C2)c1ccc(Cl)s1 (as salt: TFA) [Example 88] |
| 167 °C | O=C(Nc1cccc2c1C(=O)N(CCC(=O)N1CCN(c3ccncc3)CC1)C2=O)c1ccc(Cl)s1 [Example 5, 5-Chloro-N-(1,3-dioxo-2-{3-oxo-3-[4-(4-pyridinyl)piperazino]propyl}-2,3-dihydro-1H-isoindol-4-yl)-2-thiophenecarboxamide] |
| 237 °C | O=C(Nc1cccc2c1C(=O)N(CC(=O)N1CCN(c3cnccn3)CC1)C2=O)c1ccc(Cl)s1 [Example 6] |
| 203 °C | O=C(Nc1cccc2c1C(=O)N(CC(=O)N1CCN(c3ccccn3)CC1)C2=O)c1ccc(Cl)s1 [Example 7] |
| 136 °C | Cc1cccc(N2CCN(C(=O)CN3C(=O)c4cccc(NC(=O)c5ccc(Cl)s5)c4C3=O)CC2)c1 [Example 8] |
| 169 °C (dec.) | N#Cc1ccc(N2CCN(C(=O)CN3C(=O)c4cccc(NC(=O)c5ccc(Cl)s5)c4C3=O)CC2)nc1 [Example 9] |
| 209 °C | O=C(Nc1cccc2c1C(=O)N(CC(=O)N1CCN(c3cccc4[nH]ccc34)CC1)C2=O)c1ccc(Cl)s1 [Example 10] |
| 277 °C | O=C(Nc1cccc2c1C(=O)N(CC(=O)N1CCN(c3ncnc4sccc34)CC1)C2=O)c1ccc(Cl)s1 [Example 12] |
| 242 °C | N#Cc1nccnc1N1CCN(C(=O)CN2C(=O)c3cccc(NC(=O)c4ccc(Cl)s4)c3C2=O)CC1 [Example 13] |
| 241 °C | Cc1cccc(N2CCN(C(=O)CN3C(=O)c4cccc(NC(=O)c5ccc(Cl)s5)c4C3=O)CC2)n1 [Example 14] |
| 124 °C | CC(C)NC(=O)CN1CCN(C(=O)CN2C(=O)c3cccc(NC(=O)c4ccc(Cl)s4)c3C2=O)CC1 [Example 16] |
| 189 °C | CN(C)C(=O)CN1CCN(C(=O)CN2C(=O)c3cccc(NC(=O)c4ccc(Cl)s4)c3C2=O)CC1 [Example 17] |
| 122 °C | O=C(Nc1cccc2c1C(=O)N(CC(=O)N1CCN(CC(=O)N3CCCC3)CC1)C2=O)c1ccc(Cl)s1 [Example 19] |
| 104 °C | O=C(Nc1cccc2c1C(=O)N(CC(=O)N1CCN(CCCN3CCCCC3)CC1)C2=O)c1ccc(Cl)s1 [Example 20] |
| 230 °C | O=C(Nc1cccc2c1C(=O)N(CC(=O)N1CCN(CC(=O)N3CCOCC3)CC1)C2=O)c1ccc(Cl)s1 [Example 21] |
| 158 °C | COCCN1CCN(C(=O)CN2C(=O)c3cccc(NC(=O)c4ccc(Cl)s4)c3C2=O)CC1 [Example 22] |
| 220 °C | O=C(Nc1cccc2c1C(=O)N(CC(=O)N1CCC(NCc3cccnc3)CC1)C2=O)c1ccc(Cl)s1 [Example 24] |
| 178 °C | Nc1cnccc1N1CCN(C(=O)CN2C(=O)c3cccc(NC(=O)c4ccc(Cl)s4)c3C2=O)CC1 [Example 27] |
| 256 °C | O=C(CN1C(=O)c2cccc(NC(=O)c3ccc(Cl)s3)c2C1=O)NCC1CCN(c2ccncc2)CC1 [Example 28] |
| 203 °C | O=C(Nc1cccc2c1C(=O)N(CC(=O)N1CCN(c3ccc4c(c3)OCO4)CC1)C2=O)c1ccc(Cl)s1 [Example 32] |
| 198 °C | O=C(Nc1cccc2c1C(=O)N(CC(=O)N1CCC(CO)CC1)C2=O)c1ccc(Cl)s1 [Example 36, 5-Chloro-N-(2-{2-[4-(hydroxymethyl)piperidino]-2-oxoethyl}-1,3-dioxo-2,3-dihydro-1H-isoindol-4-yl)-2-thiophenecarboxamide] |
| 214 °C | O=C(Nc1cccc2c1C(=O)N(C1CCN(c3ccncc3)CC1)C2=O)c1ccc(Cl)s1 [Example 63, 5-Chloro-N-{1,3-dioxo-2-[1-(4-pyridinyl)-4-piperidinyl]-2,3-dihydro-1H-isoindol-4-yl}-2-thiophenecarboxamide] |
| 233 °C | O=C(Nc1cccc2c1C(=O)N(CC(=O)N1CCC(CO)CC1)C2O)c1ccc(Cl)s1 (stereo not shown) [Example 89] |
| 234 °C (dec.) | O=C(Nc1cccc2c1C(O)N(CC(=O)N1CCC(CO)CC1)C2=O)c1ccc(Cl)s1 (stereo not shown) [Example 90] |
| 209 °C | O=C(Nc1cccc2c1CN(CC(=O)N1CCC(CO)CC1)C2=O)c1ccc(Cl)s1 [Example 92] |
